Experimental data from paper PMC4764904 (Scientific Reports, 2016).
Marks after values point to notes of the source that are not given here. Where a SMILES comes first, the peptide text is derived from it. Where no end group is shown, it is not given here. [ ]: non-standard residue; d: D form.

Columns and labels:
[1] = Peptide stability in FBS by residual IP3 production; type: in vitro ADME, bovine; settings: peptide 1 μM in 100% FBS, 37 °C, 0, 3, 6, 12, 24, 48, 72 h; residual activity read as IP3 production ([3H]-inositol) in HEK293 cells expressing GALR2; mean ± S.E., at least three independent experiments
Procedure: (§1) To investigate the effects of the modifications on proteolytic susceptibility, the functional activity of peptides that were incubated in 100% serum at 37 °C for 0, 3, 6, 12, 24, 48, and 72 h was determined via inositol 1,4,5-triphosphate (IP3) production in GALR2-expressing cells (Fig. 4A–C and Table 3). […] In addition, dAla4 and dGln14 substitutions contribute to longer longevity of the peptide in serum. In an additional experiment, we examined the degradation rates of the Qu mutant, as well as the Qu mutant with an N-terminal modification and/or dAla4 and dGln14 substitutions.
(§2) Figure 4 Stability of SPX mutants in the presence of FBS (A) Qu analogs in FBS (B) and human serum (C). Potency of Qu mutants toward GALR2 (D) and GALR3 (E). For stability of SPX mutants, peptides (1 μM) were incubated in serum for 0, 3, 6, 12, 24, 48, and 72 hrs. The remaining activities of the peptides were determined by measuring IP3 production by HEK293 cells that express GALR2 after the indicated times. IP3 production was expressed as percent change, where 100% indicates IP3 production by WT SPX incubated in FBS or human serum for 0 h. For potency of Qu mutants toward GALR2 and GALR3, the SRE-luc reporter vector and plasmid containing human GALR2 or GALR3 were transfected into HEK293 cells that stably expressed Gqi protein. Cells were then treated with increasing concentrations of mutant peptides, and the receptor activities were determined using the SRE-luc reporter system.
(§3) To evaluate the stability of SPX and its analogs in FBS or human serum, peptides were incubated at an initial concentration of 1 μM in 100% serum at 37 °C for 0, 3, 6, 12, 24, 48, and 72 hours. Residual peptide activity was then assessed by measuring IP3 in HEK293 cells expressing GALR2. For the IP3 assay, cells were seeded in 12-well plates at a density of 2.5 × 10^5 cells per well, and then the next day, cells were transiently transfected with 1 μg/well of plasmid containing GALR2 using the Lipofectamine 2000 (Invitrogen) transfection reagent. The day following transfection, cells were incubated in M199 media containing 1% FBS, 1% L-glutamine, 1% penicillin/streptomycin, and 1 μCi/well of myo-^3H inositol for 20 h. After a 30-min incubation in buffer A (140 mM NaCl, 20 mM Hepes, 4 mM KCl, 8 mM D-glucose, 1 mM MgCl2, 1 mM CaCl2, 1 mg/ml free fatty acid bovine serum albumin (BSA), and 10 mM LiCl at pH 7.2), cells were treated with the agonist for 40 min at 37 °C. Media was removed, and the reactions were terminated by addition of 1 ml of 10 mM cold formic acid to each well. The plates were stored at 4 °C for 30 min, and the extracts were then transferred into 6-ml plastic tubes containing 500 μl AG1–8X anion exchange columns (BIO-RAD). The tubes were gently mixed with a vortexer, and the supernatants were removed by aspiration. Two washes with 1 ml of distilled water were performed followed by two additional washes with 60 mM ammonium formate/5mM sodium tetraborate. Tritiated inositol was separated from the column by elution with 1 ml of 1 M ammonium formate/0.1 M formic acid, and 800 μl from the elution were taken from each tube and transferred into 6-ml scintillation vials. Then, 2 ml of scintillation cocktail solution (Ultima Gold^TM, Perkin Elmer, Waltham MA, USA) was added to each sample. The radioactivity of [^3H]-myo-inositol samples was measured using a TRI carb 3100TR liquid scintillation analyzer (Packard).

[2] = Peptide stability in human serum by residual IP3 production; type: in vitro ADME; settings: peptide 1 μM in 100% human serum, 37 °C, 0, 3, 6, 12, 24, 48, 72 h; residual activity read as IP3 production ([3H]-inositol) in HEK293 cells expressing GALR2; mean ± S.E., at least three independent experiments
Procedure: as §1, §2, §3

human GALR3 = molecular target: T1, human GALR3 (Homo sapiens, UniProt O60755); test: SRE-luc reporter assay, GALR3;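 also: luciferase activity read in cell lysates across rising peptide concentrations, EC50 being the agonist concentration giving half-maximal stimulation from a sigmoidal nonlinear fit, Gαqi routing Gi-coupled receptor signaling through Gq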; type: cell-based; settings: HEK293-Gqi cells transfected with SRE-luc and human GALR3; 6 h ligand treatment; mean ± S.E. of at least three independent experiments; NM = not measurable; read-out: GALR3 EC50
T1 construct: host or cells: HEK293 cells stably expressing Gαqi
T1 sequence (O60755 1-368): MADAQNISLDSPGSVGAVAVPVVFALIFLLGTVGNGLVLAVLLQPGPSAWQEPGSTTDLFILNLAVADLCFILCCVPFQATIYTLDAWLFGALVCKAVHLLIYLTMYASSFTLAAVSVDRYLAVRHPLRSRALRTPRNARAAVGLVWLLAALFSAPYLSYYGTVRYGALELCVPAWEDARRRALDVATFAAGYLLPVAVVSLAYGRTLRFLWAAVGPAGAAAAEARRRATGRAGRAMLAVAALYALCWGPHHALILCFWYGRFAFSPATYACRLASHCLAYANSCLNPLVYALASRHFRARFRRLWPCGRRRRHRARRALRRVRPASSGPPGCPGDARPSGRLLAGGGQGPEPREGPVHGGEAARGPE
Procedure: (§4) The generated mutant SPX peptides were incubated with cells expressing GALR2 and GALR3. […] The activities of the receptors were traced using the serum-response element-driven luciferase (SRE-luc) assay system.
(§5) The SRE-luc reporter vector and plasmid containing human GALR1, GALR2, or GALR3 were transfected into HEK293 cells that stably expressed Gqi protein. Cells were then treated with increasing concentrations of mutant peptides, and the receptor activities were determined using the SRE-luc reporter system.
(§6) HEK293 cells stably expressing Gαqi, which mediates Gαi-coupled receptor activation by stimulating Gαq-dependent signaling pathways[59], were maintained in Dulbecco’s modified Eagle’s medium (DMEM) supplemented with 10% FBS, 100 U/ml penicillin G, and 100 μg/ml streptomycin (Invitrogen). Cells were seeded in 48-well plates at a density of 2 × 10^4 cells per well, one day before transfection. A mixture containing 75 ng of the SRE-luc reporter construct, 75 ng of expression plasmid, and 2 μl of Effectene reagent (Qiagen, Chatsworth, CA, USA) was prepared and added to each well according to the manufacturer’s instructions. Cells were then maintained in serum-free DMEM for 16–18 h before treatment with the ligands. Approximately 48 h after transfection, cells were treated with the respective ligands for 6 h. Cells were lysed by the addition of 100 μl lysis buffer. The luciferase activity in 50 μl of cell extract was determined by a luciferase assay system according to the standard protocol for the Synergy 2 Multi-Mode Microplate Reader (BioTek, Winooski, VT, USA).
(§7) For in vitro studies data analysis was performed by nonlinear regression with a sigmoidal dose-response. The agonist concentrations that induced half-maximal stimulation (EC50) or half-maximal inhibition of binding (IC50) were calculated with GraphPad PRISM4 software (GraphPad Software Inc., San Diego, CA, USA). […] All data are presented as mean ± S.E. of at least three independent experiments and a P value of P < 0.05 was considered statistically significant.

human GALR2 = molecular target: T2, human GALR2 (Homo sapiens, UniProt O43603); test: SRE-luc reporter assay, GALR2;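 also: luciferase activity read in cell lysates after exposure to rising peptide concentrations, EC50 being the agonist level giving half-maximal stimulation from a sigmoidal nonlinear regression fit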; type: cell-based; settings: HEK293-Gqi cells transfected with SRE-luc and human GALR2; 6 h ligand treatment; mean ± S.E. of at least three independent experiments; NM = not measurable; read-out: GALR2 EC50
T2 construct: host or cells: HEK293 cells stably expressing Gαqi
T2 sequence (O43603 1-387): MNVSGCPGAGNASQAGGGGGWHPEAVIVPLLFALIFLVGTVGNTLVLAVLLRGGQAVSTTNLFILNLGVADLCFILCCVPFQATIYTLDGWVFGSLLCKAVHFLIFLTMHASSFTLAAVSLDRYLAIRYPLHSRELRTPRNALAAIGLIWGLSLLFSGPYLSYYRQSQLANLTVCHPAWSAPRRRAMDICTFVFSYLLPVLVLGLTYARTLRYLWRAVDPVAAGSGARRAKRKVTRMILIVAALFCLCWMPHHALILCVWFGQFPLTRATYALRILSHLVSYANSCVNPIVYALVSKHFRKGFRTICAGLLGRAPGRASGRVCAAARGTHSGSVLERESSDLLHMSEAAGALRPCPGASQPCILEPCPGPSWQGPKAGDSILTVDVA
Procedure: as §4, §5, §6, §7

| Half-life activity (h) in FBS [1] | Half-life activity (h) in Human Serum [2] | EC50 (human GALR3) [µM] | EC50 (human GALR2) [nM] | Compound |
| --- | --- | --- | --- | --- |
| 4.2 ± 0.1 ^a h | 2.9 ± 0.1 ^a h | – | – | CC(C)C[C@H](NC(=O)[C@H](C)NC(=O)[C@H](C)NC(=O)[C@H](CC(N)=O)NC(=O)[C@@H]1CCCN1C(=O)[C@@H](NC(=O)[C@H](Cc1c[nH]c2ccccc12)NC(=O)[C@H](N)CC(N)=O)[C@@H](C)O)C(=O)N[C@@H](Cc1ccc(O)cc1)C(=O)N[C@@H](CC(C)C)C(=O)N[C@@H](Cc1ccccc1)C(=O)NCC(=O)N1CCC[C@H]1C(=O)N[C@@H](CCC(N)=O)C(N)=O [dN1-Qu] (H-[dN]WTPNAALYLFGPQ-NH2) |
| 2.6 ± 0.2 h | 2.0 ± 0.2 h | > 10 | 55 ± 9.24 | NWTPNAALYLFGPQ-NH2 [N5A7F11P13(Qu)] |
